Tests used:
[1] = tested on: L. infantum promastigote forms; test: Promastigote forms assay; type: cell-based, Leishmania infantum; details: for SI Promastigote forms: IC50 macrophages/IC50 parasite form; for IC50: Leishmania infantum, 72 h; for times SI exceeds the reference drug SI (all forms): extracellular and intracellular forms; for times SI exceeds the reference drug SI (all forms) / number of times that compound SI exceeds the reference drug SI, Promastigote forms: reference Glucantime; for number of times that compound SI exceeds the reference drug SI, Promastigote forms: in brackets
Protocol: (§1) The compounds obtained were dissolved in the culture medium, at dosages of 100, 50, 25, 10, and 1 μM. The effects of each compound against promastigote forms were tested at 72 hours using a Neubauer haemocytometric chamber. The antileishmanial effect is expressed as the IC50, that is, the concentration required to give 50% inhibition, calculated by linear regression analysis from the Kc values of the concentrations employed.

[2] = tested on: L. braziliensis promastigote forms; test: Promastigote forms assay; type: cell-based, Leishmania braziliensis; details: for SI Promastigote forms: IC50 macrophages/IC50 parasite form; for IC50: Leishmania braziliensis, 72 h; for number of times that compound SI exceeds the reference drug SI, Promastigote forms: in brackets, reference Glucantime
Protocol: as §1

[3] = tested on: L. infantum axenic amastigote forms; test: Axenic amastigote forms assay; type: cell-based, Leishmania infantum; details: for SI Axenic amastigote forms: IC50 macrophages/IC50 parasite form; for IC50: Leishmania infantum, 48 hours per method (72 h); for number of times that compound SI exceeds the reference drug SI, Axenic amastigote forms: in brackets, reference Glucantime
Protocol: (§2) Axenic amastigotes forms of L. infantum and L. braziliensis were cultured following the methodology described previously by Moreno et al.. Thus, promastigote transformation to amastigotes was obtained after three days of culture in M199 medium (Invitrogen, Leiden, The Netherlands) supplemented with 10% heat-inactivated FCS, 1 g/L β-alanine, 100 mg/L L-asparagine, 200 mg/L sacarose, 50 mg/L sodium pyruvate, 320 mg/L malic acid, 40 mg/L fumaric acid, 70 mg/L succinic acid, 200 mg/L α-ketoglutaric acid, 300 mg/L citric acid, 1.1 g/L sodium bicarbonate, 5 g/L MES, 0.4 mg/L hemin, and 10 mg/L gentamicin pH 5.4 at 37°C. The effect of each compound against axenic amastigotes forms was tested at 48 hours using a Neubauer haemocytometric chamber. The antileishmanial effect is expressed as the IC50.

[4] = tested on: L. braziliensis axenic amastigote forms; test: Axenic amastigote forms assay; type: cell-based, Leishmania braziliensis; details: for SI Axenic amastigote forms: IC50 macrophages/IC50 parasite form; for IC50: Leishmania braziliensis, 48 hours per method (72 h); for number of times that compound SI exceeds the reference drug SI, Axenic amastigote forms: in brackets, reference Glucantime
Protocol: as §2

[5] = tested on: L. infantum intracellular amastigote forms; test: Intracellular amastigote forms assay in J774.2 macrophages; type: cell-based, Leishmania infantum; details: for SI Intracellular amastigote forms / number of times that compound SI exceeds the reference drug SI, Intracellular amastigote forms: L. infantum; for SI Intracellular amastigote forms: IC50 macrophages/IC50 parasite form; for number of times that compound SI exceeds the reference drug SI, Intracellular amastigote forms: in brackets, reference Glucantime; for IC50: Leishmania infantum, L. infantum in J774.2 macrophages, 72 h
Protocol: (§3) Cells were seeded at a density of 1 × 10^4 cells/well in 24-well microplates (Nunc) with rounded coverslips on the bottom and cultured for 2 days. Afterwards the cells were infected in vitro with promastigote forms of L. infantum and L. braziliensis, at a ratio of 10 : 1 during 24 hours. The non-phagocytosed parasites were removed by washing, and then the drugs (at 1, 10, 25, 50, 100 μM) were added. Macrophages with the drugs were incubated for 72 hours at 37°C in 5% CO2.
(§4) Drug activity was determined on the basis of number of amastigotes in treated and untreated cultures in methanol-fixed and Giemsa-stained preparations. The number of amastigotes was determined by analyzing 200 host cells distributed in randomly chosen microscopic fields. The antileishmanial effect is expressed as the IC50 values are the means of three separate determinations.

[6] = tested on: L. braziliensis intracellular amastigote forms; test: as above; type: cell-based, Leishmania braziliensis; details: for SI Intracellular amastigote forms / number of times that compound SI exceeds the reference drug SI, Intracellular amastigote forms: L. braziliensis; for SI Intracellular amastigote forms: IC50 macrophages/IC50 parasite form; for number of times that compound SI exceeds the reference drug SI, Intracellular amastigote forms: in brackets, reference Glucantime; for IC50: Leishmania braziliensis, L. braziliensis in J774.2 macrophages, 72 h
Protocol: as §3, §4

J774.2 macrophages = test: Cytotoxicity test for macrophages (flow cytometry); type: cell-based, BALB/c rat; details: Mus musculus, J774.2, 72 h, J774.2 macrophages after 72 h of culture; read-out: Macrophage toxicity IC50
Protocol: J774.2 macrophages (ECACC number 91051511) were originally obtained from a tumour in a female BALB/c […] in 1968. The cytotoxicity test for macrophages was performed according to the methodology of González et al.. After 72 hours of treatment, cell viability was determined by flow cytometry. Thus, 100 μL/well of propidium iodide solution ([…]) was added and incubated for 10 min at 28°C in darkness. Afterwards, 100 μL/well of fluorescein diacetate (100 ng/mL) was added and incubated under the same conditions. Finally, the cells were recovered by centrifugation at 400 g for 10 min and the precipitate washed with phosphate buffered saline (PBS). Flow cytometric analysis was performed with a FACSVantage flow cytometer (Becton Dickinson). The percentage viability was calculated in comparison with the control culture. The IC50 was calculated using linear regression analysis from the Kc values of the concentrations employed.

[7] = tested on: epimastigote forms of Trypanosoma cruzi; design: method as in PMID 21466157; details: cited from earlier work

Compound | SI Promastigote forms [1] | IC50 [1] | times SI exceeds the reference drug SI (all forms) [1] | number of times that compound SI exceeds the reference drug SI, Promastigote forms [1] | SI Promastigote forms [2] | IC50 [2] | number of times that compound SI exceeds the reference drug SI, Promastigote forms [2] | SI Axenic amastigote forms [3] | IC50 [3] | number of times that compound SI exceeds the reference drug SI, Axenic amastigote forms [3] | SI Axenic amastigote forms [4] | IC50 [4] | number of times that compound SI exceeds the reference drug SI, Axenic amastigote forms [4] | SI Intracellular amastigote forms [5] | number of times that compound SI exceeds the reference drug SI, Intracellular amastigote forms [5] | IC50 [5] | SI Intracellular amastigote forms [6] | number of times that compound SI exceeds the reference drug SI, Intracellular amastigote forms [6] | IC50 [6] | IC50 (J774.2 macrophages) | other results
O=c1c(O[C@@H]2O[C@H](CO)[C@@H](O)[C@H](O)[C@H]2O)c(-c2ccc(O)cc2)oc2cc(O)cc(O)c12 [Compound 1, astragalin] | 6.7 | 35.1 ± 3.3 µM | < 50 times | 8 | 8.4 | 28.1 ± 1 µM | 14 | 8.1 | 29.2 ± 2.8 µM | 14 | 10.4 | 22.6 ± 1.7 µM | 21 | 5.1 | 10 | 45.9 ± 2.7 µM | 7.3 | 15 | 32.2 ± 1.6 µM | 236 ± 17.9 µM | IC50 compared with benznidazole [7]: significantly lower IC50 values compared with benznidazole
CC(=O)O[C@H]1[C@H](Oc2c(-c3ccc(O)cc3)oc3cc(O)cc(O)c3c2=O)O[C@H](CO)[C@@H](O)[C@@H]1O [Compound 2] | 7.8 | 34.1 ± 1.6 µM | < 50 times | 10 | 10.6 | 25.1 ± 2.5 µM | 18 | 8.2 | 32.7 ± 5 µM | 14 | 9.6 | 27.9 ± 2.7 µM | 19 | 6.3 | 13 | 42.3 ± 3.9 µM | 8.8 | 18 | 30.2 ± 3.8 µM | 267 ± 11 µM | IC50 compared with benznidazole [7]: significantly lower IC50 values compared with benznidazole
CC(=O)OC[C@H]1O[C@@H](Oc2c(-c3ccc(OC(C)=O)cc3)oc3cc(OC(C)=O)cc(OC(C)=O)c3c2=O)[C@H](OC(C)=O)[C@@H](OC(C)=O)[C@@H]1OC(C)=O [Compound 3] | 8.7 | 40.4 ± 3.4 µM | < 50 times | 11 | 12.3 | 28.4 ± 3 µM | 21 | 12.0 | 29.2 ± 3.1 µM | 20 | 10.7 | 32.9 ± 3 µM | 21 | 9.2 | 18 | 38.1 ± 1.6 µM | 8.4 | 17 | 41.9 ± 4 µM | 351 ± 26.8 µM | IC50 compared with benznidazole [7]: significantly lower IC50 values compared with benznidazole

— publication PMC3366211, “Leishmanicidal Activity of Nine Novel Flavonoids from Delphinium staphisagria” (The Scientific World Journal, 2012)
